Laboratory results published in PubChem BioAssay (NCI).
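Briefly, cells in 96-well plates were exposed to five compound concentrations for 48 h, and endpoints were estimated by linear interpolation. TGI denotes the concentration required for complete inhibition of growth.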

Assays:
Test in all cases: growth of human tumour cells (NCI), 48 h
[1] = system: 786-0 renal
[2] = system: NCI-H460 lung
[3] = system: NCI/ADR-RES ovarian
[4] = system: OVCAR-3 ovarian
[5] = system: SNB-19 CNS
[6] = system: BT-549 breast
[7] = system: COLO 205 colon
[8] = system: SK-MEL-28 melanoma
[9] = system: SW-620 colon
[10] = system: KM12 colon
[11] = system: CCRF-CEM leukemia
[12] = system: A498 renal
[13] = system: MDA-MB-231 breast
[14] = system: MDA-N
[15] = system: HOP-92 NSCLC
[16] = system: NCI-H23 lung
[17] = system: HCT-15 colon
[18] = system: HT29 colon
[19] = system: NCI-H226 lung
[20] = system: K-562 leukemia
[21] = system: HOP-62 NSCLC
[22] = system: OVCAR-4 ovarian
[23] = system: SN12C renal
[24] = system: SR leukemia
[25] = system: ACHN renal
[26] = system: DU-145 prostate
[27] = system: LOX IMVI melanoma
[28] = system: SF-268 CNS
[29] = system: HCC-2998 colon
[30] = system: HL-60(TB) leukemia
[31] = system: UACC-257 melanoma
[32] = system: MCF7 breast
[33] = system: EKVX NSCLC
[34] = system: HCT-116 colon
[35] = system: HS 578T breast
[36] = system: SK-MEL-2 melanoma
[37] = system: IGROV1 ovarian
[38] = system: SF-539 CNS
[39] = system: UACC-62 melanoma
[40] = system: U251 CNS
[41] = system: M14 melanoma
[42] = system: SNB-75 CNS
[43] = system: SK-MEL-5 melanoma
[44] = system: SF-295 CNS
[45] = system: TK-10 renal
[46] = system: RXF 393 renal
[47] = system: OVCAR-5 ovarian
[48] = system: A549 NSCLC
[49] = system: OVCAR-8 ovarian
[50] = system: PC-3 prostate
[51] = system: RPMI-8226 leukemia
[52] = system: MDA-MB-435
[53] = system: SK-OV-3 ovarian
[54] = system: UO-31 renal
[55] = system: T-47D breast
[56] = system: CAKI-1 renal
[57] = system: MALME-3M melanoma
[58] = system: MOLT-4 leukemia
[59] = system: NCI-H522 lung
[60] = system: XF 498 CNS
[61] = system: DMS 273 small cell lung
[62] = system: DMS 114 small cell lung
[63] = system: SNB-78 CNS
[64] = system: KM20L2 colon
[65] = system: M19-MEL melanoma
[66] = system: DLD-1 colon
[67] = system: LXFL 529 NSCLC

O=C1C=CC(=O)c2c(O)c(N3CCC[C@H]3CO)c(Cl)c(O)c21
TGI [1]: 3.64 µM | TGI [2]: > 10 µM | TGI [3]: 4.06 µM | TGI [4]: > 7.45 µM | TGI [5]: > 10 µM | TGI [6]: > 10 µM | TGI [7]: 3.22 µM | TGI [8]: 2.23 µM | TGI [9]: 3.51 µM | TGI [10]: > 6.06 µM | TGI [11]: 0.757 µM | TGI [12]: > 10 µM | TGI [13]: 6.48 µM | TGI [14]: 3.51 µM | TGI [15]: 3.13 µM | TGI [16]: 4.61 µM | TGI [17]: 4.15 µM | TGI [18]: > 10 µM | TGI [19]: > 10 µM | TGI [20]: 1.87 µM | TGI [21]: > 10 µM | TGI [22]: 3.93 µM | TGI [23]: 3.2 µM | TGI [24]: 1.4 µM | TGI [25]: 4.53 µM | TGI [26]: > 6.32 µM | TGI [27]: 4.34 µM | TGI [28]: > 10 µM | TGI [29]: > 6.61 µM | TGI [30]: 0.249 µM | TGI [31]: 1.92 µM | TGI [32]: 3.66 µM | TGI [33]: > 10 µM | TGI [34]: 3.3 µM | TGI [35]: > 8.27 µM | TGI [36]: 5.53 µM | TGI [37]: > 7.96 µM | TGI [38]: > 10 µM | TGI [39]: 4.88 µM | TGI [40]: > 10 µM | TGI [41]: 3.61 µM | TGI [42]: > 10 µM | TGI [43]: 3.11 µM | TGI [44]: > 10 µM | TGI [45]: 5.57 µM | TGI [46]: 3.46 µM | TGI [47]: > 10 µM | TGI [48]: > 10 µM | TGI [49]: > 6.11 µM | TGI [50]: > 10 µM | TGI [51]: 1.09 µM | TGI [52]: 3.45 µM | TGI [53]: > 10 µM | TGI [54]: > 5.84 µM | TGI [55]: 4.57 µM | TGI [56]: 3.57 µM | TGI [57]: 3.21 µM | TGI [58]: 1.95 µM | TGI [59]: 0.939 µM

NC(=S)NNc1c([N+](=O)[O-])cnn(-c2ccccc2)c1=O
TGI [1]: 35.1 µM | TGI [2]: 34 µM | TGI [4]: 32.1 µM | TGI [5]: 33.9 µM | TGI [7]: 26.7 µM | TGI [8]: 30.8 µM | TGI [9]: 26.4 µM | TGI [10]: 28.2 µM | TGI [60]: 32.6 µM | TGI [61]: 33.8 µM | TGI [15]: 34.8 µM | TGI [16]: 34.4 µM | TGI [17]: 32 µM | TGI [18]: 35.1 µM | TGI [19]: 35 µM | TGI [20]: 15.9 µM | TGI [21]: 34.4 µM | TGI [62]: 33.2 µM | TGI [22]: 31.8 µM | TGI [23]: 31.4 µM | TGI [63]: 48.3 µM | TGI [24]: > 100 µM | TGI [25]: 32.7 µM | TGI [27]: 23.7 µM | TGI [28]: 40.6 µM | TGI [29]: 33 µM | TGI [30]: 19.3 µM | TGI [31]: 38.8 µM | TGI [34]: 22.1 µM | TGI [64]: 29.8 µM | TGI [65]: 26.5 µM | TGI [37]: 35 µM | TGI [38]: 34 µM | TGI [39]: 24.4 µM | TGI [40]: 30.7 µM | TGI [41]: 28.4 µM | TGI [42]: 34.1 µM | TGI [43]: 33.2 µM | TGI [44]: 29.4 µM | TGI [45]: 46.6 µM | TGI [46]: 33.9 µM | TGI [47]: 32.4 µM | TGI [48]: 49.9 µM | TGI [49]: 31.8 µM | TGI [51]: > 100 µM | TGI [66]: 28.5 µM | TGI [53]: 36 µM | TGI [54]: 38 µM | TGI [67]: 21.1 µM | TGI [56]: 33.9 µM | TGI [57]: 33.7 µM | TGI [58]: 62.5 µM | TGI [59]: 33.6 µM
